Patent publication US11337424B2, “Fungicidal compounds and mixtures for fungal control in cereals” (Corteva Agriscience LLC, priority 2016, dated 2022)

Key:
Format in all cases: in vivo
[1] = system: Puccinia recondita (PUCCRT); assay: Field assessment of brown rust of wheat (PUCCRT), 2 field trials, relative AUDPC; conditions: % control based on AUDPC, average of 2 trials
From the text: (§1) Treatments consisted of the compound of Formula I and fenpicoxamid either using individually or as a two-way mixture with the compound of Formula I. The compound of Formula I was applied with Agnique BP-420 (50% w/w at 0.3% v/v) at 75 and 150 g ai/ha and fenpicoxamid was applied with Agnique BP-420 (50% w/w at 0.3% v/v) at 75 and 100 g ai/ha. Commercial standards used in the studies were Fluxapyroxad (Imtrex), applied at 100 g ai/ha, and Metconazole+Fluxapyroxad (Librax), applied at 161 g ai/ha.
Field Assessment of Puccinia recondita (PUCCRT) in Wheat:
Fungicidal treatment containing the compound of Formula I and fenpicoxamid, either individually or as a two mixture, were assessed against brown rust of wheat (PUCCRT) in two separate field trials. In the first trial, fungicidal treatments were applied at B37-39 (protectant, approximately 0% infection at application) growth stage of wheat (TRZAW, MV Vanek variety) under natural infection of brown rust. The treatment was part of an experimental trial designed as a randomized complete block with four replications and a plot of approximately 2×3 m. Fungicidal treatments were applied at a water volume of 200 L/ha, using a backpack plot sprayer with a TEEJET QJ90-2XTT110 015 Nozzle.
In the second trial, fungicidal treatments containing the compound of Formula I and fenpicoxamid, either individually or as a two way mixture, were applied at B33 (curative, approximately 6.6% infection at application) growth stage of wheat (TRZAW, Miradoux variety) under natural infection of brown rust. The treatments were part of an experimental trial designed as a randomized complete block with four replications and a plot of approximately 2×3 m. Fungicidal treatments were applied at a water volume of 200 L/ha, using a backpack plot sprayer with a HARDI MD110-02 Nozzle.
(§2) Disease severity (percentage of visual diseased foliage on whole plot or leaves) in both field trials was assessed at 5 weeks after application and was recorded following EPPO PP1/26 guideline prescriptions. Area under the disease progress curve (AUDPC) was calculated for each plot in both trials using the sets of recorded severity data. Relative AUDPC (% control based on AUDPC) was calculated as percent of the nontreated control. Final results for the control of brown rust of wheat by the compound of Formula I, fenpicoxamid, and mixtures are reported as an average of the relative AUDPC calculated over both field trials. Statistical analysis was done according to ANOVA and Tukey's test (p=0.10).

[2] = system: Zymoseptoria tritici (SEPTTR); assay: Field assessment of leaf blotch of wheat (SEPTTR), 3 field trials, relative AUDPC; conditions: % control based on AUDPC, average of 3 trials
From the text: as §1
Field Assessment of Zymoseptoria Tritici (SEPTTR) in Wheat:
Fungicidal treatments containing the compound of Formula I and fenpicoxamid, either individually or as a two way mixture, were assessed against leaf spot of wheat (SEPTTR) in three separate field trials. In the first trial, fungicidal treatments were applied at B37 (curative, 1.8% infection at application on L4) growth stage of winter wheat (TRZAW, Sy moisson variety) under naturally occurring infection with SEPTTR. The treatments were part of an experimental trial designed as a randomized complete block with four replications and a plot of approximately 2×4 m. Treatments were applied at water volume of 200 L/ha, using a backpack plot sprayer (BKPCKAIR, FLAT FAN nozzle) and pressurized at 250 kPa.
In the second trial, fungicidal treatments were applied twice at B32 (curative, 15% infection at application on L5) and B39 (16% infection at application on L4) growth stages of winter wheat (TRZAW, Riband variety) under naturally occurring infection with SEPTTR. The treatments were part of an experimental trial designed as a randomized complete block with four replications and a plot of approximately 1.5×2 m. Treatments were applied at water volume of 200 L/ha, using a backpack plot sprayer (BKPCKAIR, Flat fan nozzle) and pressurized at 180 kPa.
In the final trial, fungicidal treatments were applied twice at B32 (protective, 15% infection at application on L6) and B37 (12% infection at application on L5) growth stages of winter wheat (TRZAW, Smaragd variety) under naturally occurring infection with SEPTTR. […]
as §2, with “at 7-9” for “at 5”, “of leaf spot” for “of brown rust”, “over all three” for “over both”, “trials. […]” for “trials. Statistical analysis was done according to ANOVA and Tukey's test (p=0.10).”

[3] = system: Puccinia striiformis (PUCCST); assay: Field assessment of yellow rust of wheat (PUCCST), 2 field trials, relative AUDPC; conditions: % control based on AUDPC, average of 2 trials
From the text: as §1
Field Assessment of Puccinia striiformis (PUCCST) in Wheat:
Fungicidal treatments containing the compound of Formula I and fenpicoxamid, either individually or as a two way mixture, were assessed against yellow rust of wheat (PUCCST) in two separate field trials. In the first trial, fungicidal treatments were applied twice at B31-32 (early curative, 4% infection at application on L3) and B39 (16.3% infection at application on L3) growth stages of winter wheat (TRZAW, Fairplay variety) under naturally occurring infection with PUCCST. The treatments were part of an experimental trial designed as a randomized complete block with four replications and a plot of approximately 1×6 m. Treatments were applied at water volume of 200 L/ha, using a backpack plot sprayer (BKPCKENG, F110-015 Hardi (3) Flat fan nozzle) and pressurized at 200 kPa.
In the second trial, fungicidal treatments containing the compound of Formula I and fenpicoxamid, either individually or as a two way mixture, were applied twice at B32 (protectant, 0% infection on L3 at application) and B37 (early curative, 20% infection on L3 at application) growth stages of wheat (TRZAW, Torch variety) under naturally occurring infection with PUCCST. The treatment was part of an experimental trial designed as a randomized complete block with four replications and a plot of approximately 2×4 m. Treatments were applied at water volume of 200 L/ha, using a backpack precision plot sprayer (BKCKAIR, F110-03 Hypro (4) Flat fan nozzle) and pressurized at 210 kPa.
as §2, with “4-7” for “5”, “yellow” for “brown”

SMILES | PUCCRT % Control ([1]; 75 g ai/ha) | PUCCRT % Control ([1]; 150 g ai/ha) | SEPTTR % Control ([2]; 75 g ai/ha) | SEPTTR % Control ([2]; 150 g ai/ha) | PUCCST % Control ([3]; 75 g ai/ha) | PUCCST % Control ([3]; 150 g ai/ha) | PUCCRT % Control ([1]; 100 g ai/ha) | SEPTTR % Control ([2]; 50 g ai/ha) | PUCCST % Control ([3]; 100 g ai/ha)
N#Cc1ccc(Oc2ccc(C(F)(F)C(O)(Cn3nc[nH]c3=S)c3ccc(F)cc3F)nc2)cc1 (stereo not drawn) [Compound I, 4-((6-(2-(2,4-difluorophenyl)-1,1-difluoro-2-hydroxy-3-(5-thioxo-4,5-dihydro-1H-1,2,4-triazol-1-yl)propyl)pyridin-3-yl)oxy)benzonitrile] | 79.7% | 89.0% | 48.2% | 65.8% | 82.7% | 85.5% | – | – | –
COc1ccnc(C(=O)N[C@H]2COC(=O)[C@H](Cc3ccccc3)[C@@H](OC(=O)C(C)C)[C@H](C)OC2=O)c1OCOC(=O)C(C)C [Fenpicoxamid, (3S,6S,7R,8R)-8-benzyl-3-(3-((isobutyryloxy)methoxy)-4-methoxypicolinamido)-6-methyl-4,9-dioxo-1,5-dioxonan-7-yl isobutyrate] | 63.5% | – | 57.7% | – | 56.5% | – | 74.5% | 48.7% | 60.5%
